Data set [1] relates to wild-type human ether-à-go-go-related gene (hERG). The data set is described as follows: hERG trafficking, surface expression of wild-type hERG. The class given is cell-based.
Data set [2] has as its target T1, CYP1A2 (Homo sapiens, UniProt P05177).
T1 construct: investigated in human hepatic microsomes in vitro; from tissue; host or cells: human hepatic microsomes
The experiment in a line: Metabolism-dependent CYP inhibition in human hepatic microsomes. It is filed as in vitro ADME. An excerpt:
(§1) The potential for pharmacokinetic drug interactions resulting from inhibition of drug-metabolizing cytochrome P450 enzymes was investigated in human hepatic microsomes in vitro. TRX-E-002-1 inhibited multiple cytochrome P450 drug-metabolizing enzymes, including CYP2C9, CYP2C8, CYP2C19, CYP2B6, CYP3A4, CYP2D6, CYP2A6 and CYP1A2. […] In particular, the potential interaction between Cantrixil and paclitaxel, a CYP2C9 substrate frequently used in the treatment of ovarian cancer, needs to be considered.

Data set [3] has as its target T2, CYP2C8 (Homo sapiens, UniProt P10632).
T2 construct: investigated in human hepatic microsomes in vitro; from tissue; host or cells: human hepatic microsomes
Described as above. The class given is in vitro ADME.
From the text: as §1

A short description of data set [4]: Excretion study in rats, single intraperitoneal injection. It is filed as in vivo, female Sprague–Dawley rats. To be noted: 100 mg/kg i.p. How it is done:
Excretion of TRX-E-002-1 was investigated in female Sprague–Dawley rats that received a single intraperitoneal injection of TRX-E-002-1 100 mg/kg in 20% SBECD. High levels of parent drug were measured in urine up to 24 h after dosing and in faeces up to 48 h after dosing. The glucuronide conjugate, measured as the increase in TRX-E-002-1 following treatment of the samples with beta-glucuronidase, was found at levels similar to those of parent drug in faeces (rectal contents) up to 2 h after dosing, but was barely detectable in urine. Total amounts of parent drug and glucuronide excreted in faeces and urine were not calculated, so that the relative contributions of renal and biliary excretion pathways cannot be evaluated.

Data set [5] can be described thus: Dog GLP 28-day repeat-dose study, intraperitoneal three times per week. The class given is in vivo, beagle dogs. How it is done: For the dog GLP 28-day repeat-dose study, beagle dogs received intraperitoneal injections of vehicle (3:20 dilution of 20% SBECD in 0.9% saline) or Cantrixil (1, 10 or 30 mg/kg) three times per week for 4 weeks via an implanted catheter. Blood samples were collected from all dogs at 0.25, 0.5, 1, 2, 4 and 24 h after dosing on Days 1 and 26. […] Mean C max and AUClast values were similar in males and females and were greater than proportional to dose. […] Corresponding mean AUClast values on Day 1 were 71.4/80.5, 2810/2260 and 10,500/11,000 ng h/mL, respectively, for males/females.
Treatment-related clinical signs observed in males and females at 10 or 30 mg/kg included emesis, and soft or liquid faeces. […] Food consumption was affected to a lesser extent in females at 30 mg/kg and was not associated with discernible effect on body weight gain.
Similar changes were apparent but less severe in high-dose males and females after the 2-week recovery period. Coagulation parameters, serum chemistry, urinalysis and bone marrow examinations were unremarkable.
Red discoloration in the caecum was also observed in all male dogs and one female dog in the 30 mg/kg group. […] No treatment-related macroscopic abnormalities were observed after the recovery period.
In summary, the main toxicity findings following intraperitoneal administration of TRX-E-002-1 30 mg/kg in SBECD to beagle dogs three times per week for 4 weeks were emesis, soft and/or liquid faeces, leukocytosis with elevated neutrophil and monocyte counts, red discoloration in the caecum and degenerative changes in male reproductive organs. Some of these effects were also observed at the mid-dose of 10 mg/kg, while 1 mg/kg was a clear no-effect dose. […] No differences between sexes were apparent in toxic effects or systemic exposure, and the NOAEL for combined sexes was 10 mg/kg. The 10 mg/kg dose was also considered the highest non-severely toxic dose (HNSTD), and mean plasma AUClast for combined sexes at this dose was 2310 ng h/mL on Day 26.

For data set [6], the system named is mouse lymphoma L5178Y cells. The experiment in a line: In vitro mammalian cell mutation assay, thymidine kinase locus. To be noted: 3 h with and without S9, 24 h without S9. On the procedure:
Genotoxicity testing of TRX-E-002-1 was performed in an ICH-compliant test battery (see ICH Guideline S2A), comprising an in vitro bacterial reverse mutation test, an in vitro mammalian cell mutation assay and an in vivo rodent bone marrow micronucleus assay. The assays were performed in compliance with GLP regulations.
The in vitro mammalian cell mutation assay utilised the forward mutation system at the thymidine kinase locus of the mouse lymphoma L5178Y cells using a microtitre cloning technique. TRX-E-002-1 was tested in three experimental conditions: 3-h incubation at 37 °C with and without metabolic activation system (Aroclor-induced rat liver S9 mix), and a 24-h incubation without metabolic activation (i.e. continuous treatment).

T2 sequence (P10632 whole entry): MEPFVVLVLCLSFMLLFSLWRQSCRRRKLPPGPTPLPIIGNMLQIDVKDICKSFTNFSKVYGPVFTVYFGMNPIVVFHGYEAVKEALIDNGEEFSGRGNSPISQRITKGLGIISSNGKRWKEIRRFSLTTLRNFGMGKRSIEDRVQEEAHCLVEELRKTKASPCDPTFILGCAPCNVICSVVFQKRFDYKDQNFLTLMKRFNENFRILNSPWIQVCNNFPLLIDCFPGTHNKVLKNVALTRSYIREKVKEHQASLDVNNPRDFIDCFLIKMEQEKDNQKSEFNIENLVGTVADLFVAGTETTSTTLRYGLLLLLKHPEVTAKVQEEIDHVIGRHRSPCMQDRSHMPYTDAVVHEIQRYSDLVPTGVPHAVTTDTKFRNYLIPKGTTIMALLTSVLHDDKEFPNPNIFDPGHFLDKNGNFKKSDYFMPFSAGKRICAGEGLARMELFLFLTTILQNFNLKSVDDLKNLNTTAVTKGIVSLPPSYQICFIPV
T1 sequence (P05177 whole entry): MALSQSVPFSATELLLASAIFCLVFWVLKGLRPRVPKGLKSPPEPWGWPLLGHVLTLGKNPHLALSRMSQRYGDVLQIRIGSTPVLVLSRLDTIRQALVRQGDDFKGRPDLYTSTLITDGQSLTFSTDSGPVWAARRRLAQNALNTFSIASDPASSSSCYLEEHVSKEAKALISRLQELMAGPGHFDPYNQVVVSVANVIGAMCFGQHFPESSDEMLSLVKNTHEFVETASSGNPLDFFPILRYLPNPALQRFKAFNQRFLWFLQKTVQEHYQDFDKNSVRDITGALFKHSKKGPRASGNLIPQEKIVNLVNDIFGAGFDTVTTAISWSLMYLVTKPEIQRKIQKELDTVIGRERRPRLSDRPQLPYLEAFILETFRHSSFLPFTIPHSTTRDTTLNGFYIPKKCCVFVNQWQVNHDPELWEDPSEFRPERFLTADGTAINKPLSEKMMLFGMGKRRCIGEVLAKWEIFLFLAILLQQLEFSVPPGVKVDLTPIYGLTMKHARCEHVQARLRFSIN

Regarding `COc1cc([C@@H]2COc3c(ccc(O)c3C)[C@@H]2c2ccc(O)cc2)cc(OC)c1O` [TRX-E-002-1, (+) cis-4-(para-hydroxyphenyl)-7,4′-dihydroxy-3′,5′-dimethoxy-8-methylisoflavan], the “surface expression of wild-type hERG” value in data set [1] is on record as “does not affect”. For the same molecule, the metabolism-dependent inhibition result in data set [2] and in data set [3] was “observed” each time. Also, the “parent drug in urine” value in data set [4] (up to 24 h after dosing) is on record as “High levels”. Further, the “parent drug in faeces” value in data set [4] (up to 48 h after dosing) was “High levels”. Moreover, the “accumulation with three times weekly dosing” value in data set [5] (Day 26 vs Day 1) is “no accumulation”. The NOAEL at 4 weeks in data set [5] (both sexes, beagle, dog, in vivo, intraperitoneal, combined sexes) stood at 10 mg/kg; in data set [5] (female, beagle, dog, in vivo, intraperitoneal, females), 30 mg/kg; in data set [5] (male, beagle, dog, in vivo, intraperitoneal, males), 10 mg/kg. Also, the AUC(0-t) in data set [5] (both sexes, beagle, dog, plasma, intraperitoneal, combined sexes, 10 mg/kg, Day 26, read-out: mean plasma AUClast) came to 2310 ng·h/mL. The molecule also came in with a clear no-effect dose in data set [5] (dog, in vivo) of 1 mg/kg. The “highest non-severely toxic dose (HNSTD)” value in data set [5] (dog, in vivo) amounted to 10 mg/kg. Also, the “mutant frequencies compared with control values” in data set [6] was “did not show statistically significant differences”.

What is called NOAEL is the highest tested level that showed no adverse finding.

The values are drawn from paper PMC5306062, “Pharmacology and toxicology of the novel investigational agent Cantrixil (TRX-E-002-1)” (Cancer Chemotherapy and Pharmacology, 2016).
